ChEMBL document CHEMBL1201862, “PubChem BioAssay data set” (2004)
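Five concentrations, 48 hours, 96-well plates. Abbreviation: GI50, concentration required for 50% inhibition of growth.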 The source made the active and inactive calls. No stated cut-off is given here; in the data, active = GI50 up to about 1.1 µM and inactive = higher.

Legend:
Assay in all cases: inhibition of tumour cell growth, NCI panel, 48 h
A498 = tested on: A498
HCC 2998 = tested on: HCC 2998
HCT-116 = tested on: HCT-116
IGROV-1 = tested on: IGROV-1
LOX IMVI = tested on: LOX IMVI
MDA-MB-231 = tested on: MDA-MB-231
NCI-H23 = tested on: NCI-H23
NCI-H460 = tested on: NCI-H460
NCI/ADR-RES = tested on: NCI/ADR-RES
OVCAR-3 = tested on: OVCAR-3
SK-MEL-2 = tested on: SK-MEL-2
SW-620 = tested on: SW-620
UACC-62 = tested on: UACC-62
A549 = tested on: A549
M14 = tested on: M14
OVCAR-5 = tested on: OVCAR-5
SF-539 = tested on: SF-539
SK-MEL-28 = tested on: SK-MEL-28
TK-10 = tested on: TK-10
UACC-257 = tested on: UACC-257

Row | SMILES | GI50 (A498) | GI50 (HCC 2998) | GI50 (HCT-116) | GI50 (IGROV-1) | GI50 (LOX IMVI) | GI50 (MDA-MB-231) | GI50 (NCI-H23) | GI50 (NCI-H460) | GI50 (NCI/ADR-RES) | GI50 (OVCAR-3) | GI50 (SK-MEL-2) | GI50 (SW-620) | GI50 (UACC-62) | GI50 (A549) | GI50 (M14) | GI50 (OVCAR-5) | GI50 (SF-539) | GI50 (SK-MEL-28) | GI50 (TK-10) | GI50 (UACC-257)
1 | CCCOC(=O)c1cc(C(=CCC[C@H]2CC[C@@]3(C)[C@@H](CC[C@@H]4[C@@H]3CC[C@]3(C)[C@@H](C(C)CCCC(C)C)CC[C@@H]43)C2)c2cc(Cl)c(O)c(C(=O)OCCC)c2)cc(Cl)c1O (stereo not given in full) | > 50 µM (inactive) | > 50 µM (inactive) | > 50 µM (inactive) | > 50 µM (inactive) | > 50 µM (inactive) | > 50 µM (inactive) | > 50 µM (inactive) | > 50 µM (inactive) | > 50 µM (inactive) | > 50 µM (inactive) | > 50 µM (inactive) | > 50 µM (inactive) | > 50 µM (inactive) | – | – | – | – | – | – | –
2 | c1ccc(B2OCC(C3OB(c4ccccc4)OC4COB(c5ccccc5)OC43)O2)cc1 (stereo not given) | > 100 µM (inactive) | – | > 100 µM (inactive) | > 100 µM (inactive) | > 100 µM (inactive) | > 100 µM (inactive) | > 100 µM (inactive) | > 100 µM (inactive) | > 100 µM (inactive) | > 100 µM (inactive) | > 100 µM (inactive) | > 100 µM (inactive) | > 100 µM (inactive) | > 100 µM (inactive) | > 100 µM (inactive) | > 100 µM (inactive) | > 100 µM (inactive) | > 100 µM (inactive) | > 100 µM (inactive) | > 100 µM (inactive)
3 | CCOC(=O)c1ccc(C(=O)/C(C#N)=C2\CCCN2)n1C | > 100 µM (inactive) | > 100 µM (inactive) | > 100 µM (inactive) | > 100 µM (inactive) | 86.5 µM (inactive) | > 100 µM (inactive) | 97.5 µM (inactive) | > 100 µM (inactive) | 34.2 µM (inactive) | 68.4 µM (inactive) | > 100 µM (inactive) | > 100 µM (inactive) | > 100 µM (inactive) | > 100 µM (inactive) | > 100 µM (inactive) | > 100 µM (inactive) | – | > 100 µM (inactive) | – | –
4 | Cc1ncc([N+](=O)[O-])n1CCN(C)C(=O)CCCn1ccnc1[N+](=O)[O-] | > 100 µM (inactive) | – | > 100 µM (inactive) | > 100 µM (inactive) | > 100 µM (inactive) | > 100 µM (inactive) | > 100 µM (inactive) | > 100 µM (inactive) | > 100 µM (inactive) | > 100 µM (inactive) | > 100 µM (inactive) | > 100 µM (inactive) | > 100 µM (inactive) | > 100 µM (inactive) | > 100 µM (inactive) | > 100 µM (inactive) | > 100 µM (inactive) | > 100 µM (inactive) | > 100 µM (inactive) | > 100 µM (inactive)
5 | NCCOc1ccccn1 | > 100 µM (inactive) | – | > 100 µM (inactive) | > 100 µM (inactive) | > 100 µM (inactive) | > 100 µM (inactive) | > 100 µM (inactive) | > 100 µM (inactive) | > 100 µM (inactive) | > 100 µM (inactive) | > 100 µM (inactive) | > 100 µM (inactive) | > 100 µM (inactive) | > 100 µM (inactive) | > 100 µM (inactive) | > 100 µM (inactive) | > 100 µM (inactive) | > 100 µM (inactive) | > 100 µM (inactive) | > 100 µM (inactive)
6 | O=S(=O)(O)c1ccc(/N=N/c2ccc3c(S(=O)(=O)O)cccc3c2O)c2ccccc12 | > 100 µM (inactive) | – | > 100 µM (inactive) | > 100 µM (inactive) | > 100 µM (inactive) | > 100 µM (inactive) | > 100 µM (inactive) | – | > 100 µM (inactive) | > 100 µM (inactive) | > 100 µM (inactive) | > 100 µM (inactive) | > 100 µM (inactive) | > 100 µM (inactive) | > 100 µM (inactive) | > 100 µM (inactive) | – | > 100 µM (inactive) | > 100 µM (inactive) | > 100 µM (inactive)
7 | COc1cc2c(c3oc4c(O)cccc4c(=O)c13)CC(C(C)(O)CO)O2 (stereo not given) | – | > 100 µM (inactive) | 40.6 µM (inactive) | 41.7 µM (inactive) | 25 µM (inactive) | 63.7 µM (inactive) | 95.7 µM (inactive) | 96.8 µM (inactive) | > 100 µM (inactive) | > 100 µM (inactive) | 57.4 µM (inactive) | 47.6 µM (inactive) | 27.1 µM (inactive) | > 100 µM (inactive) | > 100 µM (inactive) | > 100 µM (inactive) | 60.3 µM (inactive) | > 100 µM (inactive) | > 100 µM (inactive) | > 100 µM (inactive)
8 | Cc1ccc(/N=C2\C(=O)C3=C(OC(C)(C)CC3)c3ccccc32)cc1 | 2.06 µM (inactive) | 1.77 µM (inactive) | 0.292 µM (active) | 0.703 µM (active) | 0.269 µM (active) | 1.68 µM (inactive) | 1.08 µM (active) | 1.58 µM (inactive) | 0.318 µM (active) | 0.151 µM (active) | 1.7 µM (inactive) | 0.738 µM (active) | 1.49 µM (inactive) | 1.83 µM (inactive) | 0.459 µM (active) | 1.51 µM (inactive) | – | 1.21 µM (inactive) | 2.27 µM (inactive) | 0.748 µM (active)
9 | CO/C(=N\N=C\c1ccc(OC)c(OC)c1)c1ccncc1 | > 10 µM (inactive) | > 10 µM (inactive) | – | > 10 µM (inactive) | > 10 µM (inactive) | > 10 µM (inactive) | > 10 µM (inactive) | > 10 µM (inactive) | > 10 µM (inactive) | – | – | > 10 µM (inactive) | > 10 µM (inactive) | > 10 µM (inactive) | > 10 µM (inactive) | – | > 10 µM (inactive) | – | > 10 µM (inactive) | > 10 µM (inactive)
10 | C=CCON(C(=O)OC(C)(C)C)C(C)(C)C | > 100 µM (inactive) | > 100 µM (inactive) | > 100 µM (inactive) | > 100 µM (inactive) | > 100 µM (inactive) | > 100 µM (inactive) | > 100 µM (inactive) | > 100 µM (inactive) | > 100 µM (inactive) | > 100 µM (inactive) | > 100 µM (inactive) | > 100 µM (inactive) | > 100 µM (inactive) | > 100 µM (inactive) | > 100 µM (inactive) | > 100 µM (inactive) | – | > 100 µM (inactive) | > 100 µM (inactive) | > 100 µM (inactive)
11 | CN(C)c1ccc(C2CC(C)(O)Oc3cc4c(cc32)OCO4)cc1 (stereo not given) | – | 32.4 µM (inactive) | 34.5 µM (inactive) | 1.73 µM (inactive) | 31.6 µM (inactive) | 18.2 µM (inactive) | 71.8 µM (inactive) | 40.9 µM (inactive) | 35.2 µM (inactive) | 64.3 µM (inactive) | 22.2 µM (inactive) | 35.3 µM (inactive) | 21.6 µM (inactive) | 43.7 µM (inactive) | 39.1 µM (inactive) | 75.9 µM (inactive) | 34.1 µM (inactive) | 36.9 µM (inactive) | 59.3 µM (inactive) | 62.4 µM (inactive)
